Measured values: patent EP0293220B1, “Pharmacologically active 2-and 3-substituted (1', 5'-diaryl-3-pyrazolyl)-N-Hydroxypropanamides and method for synthesizing” (ORTHO PHARMACEUTICAL CORPORATION, priority 1987, dated 1988)

Assays:
Polyarthritis = Polyarthritis induced by Mycobacterium butyricum in rats: inhibition of paw volume increase after oral dosing; assay type: in vivo, Lewis strain laboratory rats; settings: percent inhibition of paw volume increase
Experimental: Polyarthritis was induced in Lewis strain laboratory rats (weight = about 200 grams) by injection of a suspension of Mycobacterium butyricum in mineral oil into the subplantar tissue of the mammal's hind paws. On day 10 after the injection, the rats were assigned to groups, and paw volumes and body weights were recorded. Paw volumes of the contralateral, uninjected hind paw were determined by mercury plethylsmography. Per oral (p.o.) dosing began and continued for five consecutive days thereafter. On day 14 after the initial injection, approximately four hours after the final dose was administered, paw volumes and body weights were recorded and quantitated.
Anti-inflammatory activity of the N-hydroxypropanamide pyrazole compounds is expressed as the percent inhibition of paw volume increase.

lipoxygenase = biological target: T1, lipoxygenase (Rattus norvegicus, UniProt P12527); assay: Ex vivo arachidonic acid metabolism of rat pleural exudate cells after oral dosing, lipoxygenase products (5-HETE, leukotriene B₄); assay type: in vivo, Sprague-Dawley rats; settings: for ED50: oral dose, ex vivo rat pleural exudate cells, read-out: IC₅₀, p.o. Lipoxygenase; for inhibition at 30 mg/kg: 30 mpk
T1 construct: endogenous in cells; host or cells: pleural exudate cells of carrageenan-treated Sprague-Dawley rats
T1 sequence (P12527 1-673): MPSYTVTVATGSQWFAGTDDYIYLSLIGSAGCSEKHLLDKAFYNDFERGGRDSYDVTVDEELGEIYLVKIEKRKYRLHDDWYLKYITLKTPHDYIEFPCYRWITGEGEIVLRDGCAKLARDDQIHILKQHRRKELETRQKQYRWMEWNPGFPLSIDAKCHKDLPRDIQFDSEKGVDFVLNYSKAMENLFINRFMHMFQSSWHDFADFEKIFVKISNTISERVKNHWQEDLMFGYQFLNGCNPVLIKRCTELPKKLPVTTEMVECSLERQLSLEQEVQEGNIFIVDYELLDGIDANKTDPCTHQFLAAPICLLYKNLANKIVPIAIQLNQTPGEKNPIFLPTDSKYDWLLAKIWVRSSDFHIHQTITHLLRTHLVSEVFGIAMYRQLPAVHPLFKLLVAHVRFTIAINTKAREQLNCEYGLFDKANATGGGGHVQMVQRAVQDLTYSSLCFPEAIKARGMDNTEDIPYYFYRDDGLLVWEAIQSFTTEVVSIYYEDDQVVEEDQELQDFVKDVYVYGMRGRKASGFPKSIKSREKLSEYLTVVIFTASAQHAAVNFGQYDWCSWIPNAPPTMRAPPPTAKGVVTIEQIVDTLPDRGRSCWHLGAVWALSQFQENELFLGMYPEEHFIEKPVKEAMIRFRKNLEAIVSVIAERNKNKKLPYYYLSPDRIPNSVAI
Experimental: This assay determines the ability of orally administered compounds to inhibit arachidonic acid metabolism with rat pleural exudate cells, via the lipoxygenase and/or cyclooxygenase enzymes. Sprague-Dawley rats (250 - 275 gm) are fasted overnight. The next morning, an acute inflammatory response is induced by the intra-thoracic injection of 1 ml of 0.25% carrageenan. Three hours later the rats are dosed orally with the test compounds at a screening dose of 16.5-30 mpk. Thirty minutes to one hour later the rats are sacrificed and pleural fluid harvested. The exudate fluids are diluted 1:5 using Hanks BSS and stimulated using 10 µg/ml calcium ionophore A-23187. The reaction is stopped after 15 minutes by the addition of 25 µl of 1N HCl, and the samples are centrifuged at 1000 g to sediment the cells. The supernate is extracted and applied to a C-18 HPLC column. The arachidonic acid metabolites 12-HHT (cyclooxygenase), 5-HETE, and leukotriene B₄ (lipoxygenase) are eluted using an acetonitrile methanol gradient and detected by UV absorption at 235 and 270 nm. The percent inhibition of the arachidonic acid metabolites is indicative of the anti-inflammatory activity of the tested compound and the results of this method for several compounds of the invention are listed in Table 13. The values shown are the percent inhibition at the dose indicated except for the those cases in which the IC₅₀ value is given.

[1] = rat, po, exudate cells stimulated with 10 µg/ml calcium ionophore A-23187, read-out: %INH., p.o. Lipoxygenase (mpk)

COc1ccc(-n2nc(/C(=C/C(=O)O)c3ccccc3)cc2-c2ccc(C)cc2)cc1 [Compound 155, (E)-3-[1-(4-Methoxyphenyl)-5-(4-methylphenyl)-3-pyrazolyl]-3-phenyl-2-propenoic acid]
%INH., p.o. (mpk) (Polyarthritis; 10 mpk): 62% @ 10

COc1ccc(-n2nc(/C(=C/C(=O)N(C)O)c3ccc(F)cc3)cc2-c2ccc(C)cc2)cc1 [Compound 163, (E)-3-(4-Fluorophenyl)-N-hydroxy-3-[1-(4-methoxyphenyl)-5-(4-methylphenyl)-3-pyrazolyl]-N-methylpropenamide]
ED50 (lipoxygenase): 10 mg/kg

COc1ccc(-n2nc(/C(=C/C(=O)N(C)O)c3ccc(Cl)cc3)cc2-c2ccc(C)cc2)cc1 [Compound 164]
%INH., p.o. (mpk) (Polyarthritis; 10 mpk): 22% @ 10

COc1ccc(-c2cc(C(O)c3ccccc3)nn2-c2ccc(OC)cc2)cc1 (stereo not drawn) [Compound 105, [1,5-Bis(4-methoxyphenyl)-3-pyrazolyl]-1-phenylmethanol]
%INH., p.o. (mpk) (Polyarthritis; 15 mpk): 49% @ 15

CCOC(=O)/C=C(/c1ccc(-c2ccccc2)cc1)c1cc(-c2ccc(C)cc2)n(-c2ccc(OC)cc2)n1 [Compound 132]
inhibition at 16.5 mg/kg (lipoxygenase; rat, po, 16.5 mpk, exudate cells stimulated with 10 µg/ml calcium ionophore A-23187, read-out: %INH., p.o. Lipoxygenase (mpk)): 34%

COc1ccc(-n2nc(/C(=C\C(=O)O)c3ccc(Cl)cc3)cc2-c2ccc(C)cc2)cc1 [Compound 158, (Z)-3-(4-Chlorophenyl)-3-[1-(4-methoxyphenyl)-5-(4-methylphenyl)-3-pyrazolyl]propenoic acid]
inhibition at 17.5 mg/kg (lipoxygenase; rat, po, 17.5 mpk, exudate cells stimulated with 10 µg/ml calcium ionophore A-23187, read-out: %INH., p.o. Lipoxygenase (mpk)): 53%

COc1ccc(-n2nc(C(O)c3ccc4ccccc4c3)cc2-c2ccc(C)cc2)cc1 (stereo not drawn) [Compound 94]
%INH., p.o. (mpk) (Polyarthritis; 10 mpk): 29% @ 10

COc1ccc(-n2nc(/C(=C/C(=O)N(C)O)c3ccc(-c4ccccc4)cc3)cc2-c2ccc(C)cc2)cc1 [Compound 168]
inhibition at 30 mg/kg (lipoxygenase; [1]): 3%

COc1ccc(-n2nc(C(O)c3ccc(C)cc3)cc2-c2ccc(C)cc2)cc1 (stereo not drawn) [Compound 92]
%INH., p.o. (mpk) (Polyarthritis; 10 mpk): 27% @ 10

COc1ccc(-n2nc(/C(=C\C(=O)N(C)O)c3ccc(Cl)cc3)cc2-c2ccc(C)cc2)cc1 [Compound 165]
inhibition at 30 mg/kg (lipoxygenase; [1]): 12%

COc1ccc(-n2nc(C(=O)c3ccc(C)cc3)cc2-c2ccc(C)cc2)cc1 [Compound 109, 1-(4-Methoxyphenyl)-3-(4-methylbenzoyl)-5-(4-methylphenyl)pyrazole]
inhibition at 30 mg/kg (lipoxygenase; [1]): 62%

CCOC(=O)CC(c1cc(-c2ccc(C)cc2)n(-c2ccc(OC)cc2)n1)c1cccc2ccccc12 (stereo not drawn) [Compound 150]
inhibition at 30 mg/kg (lipoxygenase; [1]): 42%

CCOC(=O)/C=C(/c1ccc(C)cc1)c1cc(-c2ccc(C)cc2)n(-c2ccc(OC)cc2)n1 [Compound 125, (Z)-Ethyl 3-[1(4-methoxyphenyl)-5-(4-methylphenyl)-3-pyrazolyl]-3-(4-methylphenyl)propenoate]
ED50 (lipoxygenase): 9 mg/kg

COc1ccc(-n2nc(C(=O)c3ccc(Cl)cc3)cc2-c2ccc(C)cc2)cc1 [Compound 108]
%INH., p.o. (mpk) (Polyarthritis; 10 mpk): 25% @ 10

COc1ccc(-n2nc(/C(=C/C(=O)O)c3ccc(Cl)cc3)cc2-c2ccc(C)cc2)cc1 [Compound 157, (E)-3-(4-Chlorophenyl)-3-[1-(4-methoxyphenyl)-5-(4-methylphenyl)-3-pyrazolyl]propenoic acid]
%INH., p.o. (mpk) (Polyarthritis; 10 mpk): 24% @ 10
